Peptide text beside a SMILES is read from it.
Experiments:
KDM7B dual domain = molecular target: T1, KDM7B dual domain (Homo sapiens, UniProt Q9UPP1); test: AlphaScreen demethylation assay; type: biochemical
T1 construct: dual domain (PHD-JmjC) of KDM7B; His-tag (C); made in house
Description: We tested the effect of OC9 on KDM7B demethylation of H3_1–21K4me3K9me2 and the less-efficient H3_1–21K9me2 substrate by MALDI-TOF MS based assay.[14,19] […] Inhibition by OC9 was further confirmed by an orthogonal AS activity assay[58] (Fig. S41 ^†). […] As KDM7B aromatic cage mutation results in the same phenotypic outcome as JmjC catalytic site inactivation (e.g. KDM7B demethylase-dependent melanoma metastasis[20]), our results emphasise the crucial role of PHD-fingers in regulating KDM7 demethylase activity and the need to explore PHD-finger viability as therapeutic targets.

KDM7A Dual (PHD+JmjC) = KDM7A Dual (PHD+JmjC) (Homo sapiens, UniProt Q6ZMT4); test: BLI binding; details: 1:1 binding model
Description: (§1) Figure S2. BLI for KDM7 proteins with cyclic peptides.
(§2) BLI traces for b inding to KDM7 protein domains immobilised by C-terminal His -tag on Ni -NTA
(§3) biosensors, against cyclic peptides. Response trace for each peptide concentration is represented by
(§4) a different colour, with the fitted curves overlaid in black.
(§5) concentration plotted, with 2-fold dilutions thereafter. Dual domain = PHD+JmjC. […]
(§6) against KDM7 and other protein domains. t1/2 = half life (0.693 / Koff)
(§7) (1 picture or pasted object on this page, not shown here)

KDM7C Dual (PHD+JmjC) = KDM7C Dual (PHD+JmjC) (Homo sapiens, UniProt O75151); test: BLI binding; details: 1:1 binding model
Description: as §1, §2, §3, §4, §5, §6, §7

KDM7A PHD = molecular target: T2, KDM7A PHD (Homo sapiens, UniProt Q6ZMT4); test: BLI binding; details: 1:1 binding model
T2 construct: KDM7A 38-98; made in house
T2 sequence (Q6ZMT4 38-98): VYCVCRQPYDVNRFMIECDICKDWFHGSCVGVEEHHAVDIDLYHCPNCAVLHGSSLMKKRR
Description: as §1, §2, §3, §4, §5, §6, §7

KDM7C PHD = molecular target: T3, KDM7C PHD (Homo sapiens, UniProt O75151); test: BLI binding; details: 1:1 binding model
T3 construct: KDM7C 1-67; made in house
T3 sequence (O75151 1-67): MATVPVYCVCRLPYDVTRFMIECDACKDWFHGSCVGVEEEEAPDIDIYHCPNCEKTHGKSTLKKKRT
Description: as §1, §2, §3, §4, §5, §6, §7

[1] = His-tagged protein on Ni-NTA biosensors

Sequence of KDM7C Dual (PHD+JmjC) (O75151 1-353 limits assumed): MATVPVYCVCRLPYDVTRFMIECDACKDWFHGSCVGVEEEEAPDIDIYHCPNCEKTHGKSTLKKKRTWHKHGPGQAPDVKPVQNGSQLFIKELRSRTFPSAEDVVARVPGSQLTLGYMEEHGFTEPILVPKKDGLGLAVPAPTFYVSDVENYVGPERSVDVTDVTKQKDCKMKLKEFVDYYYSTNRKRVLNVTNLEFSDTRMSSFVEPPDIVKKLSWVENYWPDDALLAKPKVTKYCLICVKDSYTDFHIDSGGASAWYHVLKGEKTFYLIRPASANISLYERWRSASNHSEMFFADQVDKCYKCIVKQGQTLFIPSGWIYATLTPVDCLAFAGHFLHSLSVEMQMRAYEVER
Sequence of KDM7A Dual (PHD+JmjC) (Q6ZMT4 38-386 limits assumed): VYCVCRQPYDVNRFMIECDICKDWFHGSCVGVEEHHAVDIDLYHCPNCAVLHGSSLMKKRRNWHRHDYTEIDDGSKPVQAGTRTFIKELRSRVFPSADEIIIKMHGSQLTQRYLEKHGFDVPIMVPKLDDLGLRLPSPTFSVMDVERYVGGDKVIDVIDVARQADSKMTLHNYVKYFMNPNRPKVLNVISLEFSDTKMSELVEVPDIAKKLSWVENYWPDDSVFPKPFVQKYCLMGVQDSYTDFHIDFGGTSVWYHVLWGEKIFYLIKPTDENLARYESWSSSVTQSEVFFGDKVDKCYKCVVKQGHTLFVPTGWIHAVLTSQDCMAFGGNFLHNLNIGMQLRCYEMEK
T1 sequence (Q9UPP1 37-483 limits assumed): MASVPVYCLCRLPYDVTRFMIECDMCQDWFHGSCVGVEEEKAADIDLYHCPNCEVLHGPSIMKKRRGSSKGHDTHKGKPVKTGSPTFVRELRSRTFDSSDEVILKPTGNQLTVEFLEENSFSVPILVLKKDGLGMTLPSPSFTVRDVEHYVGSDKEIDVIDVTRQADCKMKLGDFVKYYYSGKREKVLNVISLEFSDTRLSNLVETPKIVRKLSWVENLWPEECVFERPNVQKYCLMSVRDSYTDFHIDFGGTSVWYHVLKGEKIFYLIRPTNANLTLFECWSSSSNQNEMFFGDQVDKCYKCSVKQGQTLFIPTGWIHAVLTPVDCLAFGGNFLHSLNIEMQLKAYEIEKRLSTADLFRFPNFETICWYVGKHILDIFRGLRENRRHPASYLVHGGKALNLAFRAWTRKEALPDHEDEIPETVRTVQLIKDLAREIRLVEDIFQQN

inhibition of KDM7B demethylase in orthogonal AS activity assay (KDM7B dual domain): Inhibition
koff (KDM7A Dual (PHD+JmjC)): 0.0123 ± 0.0001 s⁻¹
kon (KDM7A Dual (PHD+JmjC)): 289000 ± 3000 M⁻¹ s⁻¹
Kd (KDM7A Dual (PHD+JmjC); [1]): 42.5 nM
koff (KDM7C Dual (PHD+JmjC)): 0.000137 ± 1e-06 s⁻¹
kon (KDM7C Dual (PHD+JmjC)): 409000 ± 2000 M⁻¹ s⁻¹
Kd (KDM7C Dual (PHD+JmjC); read-out: BLI pKD, KDM7C Dual (converted)): 0.316 nM
koff (KDM7A PHD): 0.00679 ± 2e-05 s⁻¹
kon (KDM7A PHD): 358000 ± 3000 M⁻¹ s⁻¹
Kd (KDM7A PHD; [1]): 19 nM
koff (KDM7C PHD): 0.000483 ± 2e-06 s⁻¹
kon (KDM7C PHD): 463000 ± 2000 M⁻¹ s⁻¹
Kd (KDM7C PHD; [1]): 1.05 nM
Structure (SMILES): CC(C)C[C@@H]1NC(=O)[C@H](Cc2ccc(O)cc2)NC(=O)[C@H](Cc2ccc(O)cc2)NC(=O)CSC[C@@H](C(N)=O)NC(=O)[C@H]([C@@H](C)O)NC(=O)[C@H](CCCNC(=N)N)NC(=O)[C@H](Cc2ccccc2)NC(=O)[C@H](C(C)C)NC(=O)[C@H](CO)NC(=O)[C@@H]2CCCN2C(=O)[C@H](Cc2ccc(O)cc2)NC(=O)[C@@H]2CCCN2C(=O)[C@H](Cc2c[nH]cn2)NC(=O)[C@H]([C@@H](C)O)NC1=O [OC9] (HELM PEPTIDE1{[O=C(C[*:3])[*:2]].Y.Y.L.T.H.P.Y.P.S.V.F.R.T.C.[am]}$PEPTIDE1,PEPTIDE1,1:R3-15:R3$$$V2.0)
